The series can be described thus: Serum stability test. In kind it is in vitro ADME. As to conditions: human, diluted human serum (25%).

Broadly, the half-life is how long it takes for the measured level to halve.

Compound `CC[C@H](C)[C@H](NC(=O)[C@@H](NC(=O)[C@@H]1CCCN1C(=O)[C@H](Cc1c[nH]cn1)NC(=O)[C@@H]1CCCN1C(=O)CN)C(C)C)C(=O)N[C@H](C(=O)N[C@H](C(=O)N[C@H](C(=O)NCC(=O)N1CCC[C@H]1C(=O)N[C@@H](Cc1c[nH]cn1)C(=O)N[C@@H](CCC(=O)O)C(=O)N[C@@H](CCC(=O)O)C(N)=O)[C@@H](C)O)[C@@H](C)CC)C(C)C` [VIVIT] gave a half-life at 50 µM of about 60 min.

Values taken from PMC4174996 (Journal of Medicinal Chemistry, 2014).
